# Experimental data taken from patent EP4603105A1, “PHARMACEUTICAL COMPOSITION CONTAINING CYCLIC COMPOUND HAVING SELECTIVE KRAS INHIBITORY EFFECT AGAINST HRAS AND NRAS” (CHUGAI SEIYAKU KABUSHIKI KAISHA, priority 2022, dated 2024).
# Key:
# HRAS wild-type protein = HRAS wild-type protein (Homo sapiens, UniProt P01112); assay: Binding to HRAS by surface plasmon resonance (SPR), KD and KD ratio to KRAS; details: ratio of KD for HRAS wild-type protein to KD for KRAS
# How it was run: (§1)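 SPR, 30°C: Avi-biotin RAS·GDP captured via Biotin CAPture (~100–300 RU); running buffer HBS pH 7.4, 1 mM DTT, 10 mM MgCl2, 0.01% Tween 20, 10 µM GDP, 4% DMSO. Single-cycle kinetics, 100 µL/min, 75 s injections; 1:1 model → KD.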
# [1] = target: GDP-bound KRAS wild-type protein (Homo sapiens, UniProt P01116); assay: Binding to KRAS by surface plasmon resonance (SPR), dissociation constant KD; details: Single Cycle Kinetics
# Sequence of GDP-bound KRAS wild-type protein (P01116 1-188 isoform P01116-2): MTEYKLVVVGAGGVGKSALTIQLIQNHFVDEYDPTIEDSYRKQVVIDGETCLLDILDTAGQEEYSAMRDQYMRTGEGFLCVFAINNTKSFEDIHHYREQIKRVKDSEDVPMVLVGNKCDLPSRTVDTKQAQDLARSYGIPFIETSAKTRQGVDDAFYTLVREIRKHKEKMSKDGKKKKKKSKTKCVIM
# How it was run: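 Compound binding is evaluated by SPR single-cycle kinetics, with concentrations added intermittently from low to high for 75 s each. Target surfaces carry GDP-loaded biotinylated Avi-RAS at about 100–300 RU, regenerated after each cycle; temperature 30°C. A 1:1 binding model gives KD.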
# [2] = target: GDP-bound NRAS wild-type protein (Homo sapiens, UniProt P01111); assay: Binding to NRAS by surface plasmon resonance (SPR), KD and KD ratio to KRAS; details: ratio of KD for GDP-bound NRAS wild-type protein to KD for KRAS
# Sequence of GDP-bound NRAS wild-type protein (P01111 whole entry): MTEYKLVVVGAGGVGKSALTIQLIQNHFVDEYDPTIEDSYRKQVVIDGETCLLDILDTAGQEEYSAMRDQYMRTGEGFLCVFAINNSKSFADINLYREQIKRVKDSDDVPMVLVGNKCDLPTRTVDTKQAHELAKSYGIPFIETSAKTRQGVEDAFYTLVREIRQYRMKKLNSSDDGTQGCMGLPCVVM
# How it was run: as §1
# [3] = system: human lung cancer strain NCI-H441; format: cell-based
# How it was run: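 Proliferation was scored by […] measured after the reagent was added to cultures kept at 37°C in 5% carbon dioxide.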
# Sequence of HRAS wild-type protein (P01112 whole entry): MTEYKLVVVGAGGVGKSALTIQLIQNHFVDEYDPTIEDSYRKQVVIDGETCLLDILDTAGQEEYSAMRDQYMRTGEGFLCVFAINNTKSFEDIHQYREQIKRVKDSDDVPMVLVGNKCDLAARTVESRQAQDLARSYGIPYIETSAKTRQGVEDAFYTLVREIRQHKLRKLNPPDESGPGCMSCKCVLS
Structure (SMILES),HRAS /KRAS (HRAS wild-type protein),Kd [1] [nM],NRAS /KRAS [2],IC50 [3] [nM]
CC[C@H](C)[C@@H]1NC(=O)[C@H](CC(C)C)N(C)C(=O)C[C@@H](C(=O)N2CCOCC2)N(C)C(=O)[C@H](C2CCCC2)N(C)C(=O)C2(CCCC2)NC(=O)[C@@H]2CCCN2C(=O)[C@H](CCc2cc(F)c(C(F)(F)F)c(F)c2)NC(=O)CN(C)C(=O)[C@H](Cc2ccc(F)cc2)N2CCCCC[C@@H](C2=O)N(C)C(=O)CN(C)C1=O [PP0964],B (a compound having 3 or more and less than 10 is denoted as B),0.59,B (a compound having 3 or more and less than 10 is denoted as B),56.6
CCO[C@@H]1C[C@H]2C(=O)NC3(CCCC3)C(=O)N(C)[C@@H](C3CCCC3)C(=O)N(C)[C@H](C(=O)N3CCOCC3)CC(=O)N(C)[C@@H](CC(C)C)C(=O)N[C@@H]([C@@H](C)CC)C(=O)N(C)CC(=O)N(C)[C@H]3CCCCCN(C3=O)[C@@H](Cc3ccc(F)cc3)C(=O)N(C)CC(=O)N[C@@H](CCc3ccc(C(F)(F)F)c(Cl)c3)C(=O)N2C1 [PP0965],B (a compound having 3 or more and less than 10 is denoted as B),0.57,B (a compound having 3 or more and less than 10 is denoted as B),48.8
CCO[C@@H]1C[C@H]2C(=O)NC3(CCC3)C(=O)N(C)[C@@H](C3CCCC3)C(=O)N(C)[C@H](C(=O)N3CCOCC3)CC(=O)N(C)[C@@H](CC(C)C)C(=O)N[C@@H]([C@@H](C)CC)C(=O)N(C)CC(=O)N(C)[C@H]3CCCCCN(C3=O)[C@@H](Cc3ccc(F)cc3)C(=O)N(C)CC(=O)N[C@@H](CCc3ccc(C(F)(F)F)c(Cl)c3)C(=O)N2C1 [PP0968],B (a compound having 3 or more and less than 10 is denoted as B),0.32,B (a compound having 3 or more and less than 10 is denoted as B),38.8
CC[C@H](C)[C@@H]1NC(=O)[C@H](CC(C)C)N(C)C(=O)C[C@@H](C(=O)N2CCOCC2)N(C)C(=O)[C@H](C2CCCC2)N(C)C(=O)C2(CCC2)NC(=O)[C@@H]2CC(F)(F)CN2C(=O)[C@H](CCc2ccc(C(F)(F)F)c(Cl)c2)NC(=O)CN(C)C(=O)[C@H](Cc2ccc(F)cc2)N2CCCCC[C@@H](C2=O)N(C)C(=O)CN(C)C1=O [PP0969],B (a compound having 3 or more and less than 10 is denoted as B),0.12,B (a compound having 3 or more and less than 10 is denoted as B),13.6
CC[C@H](C)[C@@H]1NC(=O)[C@H](CC(C)C)N(C)C(=O)C[C@@H](C(=O)N(C)C)N(C)C(=O)[C@H](C2CCCC2)N(C)C(=O)C2(CCCC2)NC(=O)[C@@H]2CCCN2C(=O)[C@H](CCc2ccc(C(F)(F)F)c(Cl)c2)NC(=O)CN(C)C(=O)[C@H](Cc2ccc(F)cc2)N2CCCCC[C@@H](C2=O)N(C)C(=O)CN(C)C1=O [PP0971],B (a compound having 3 or more and less than 10 is denoted as B),0.34,B (a compound having 3 or more and less than 10 is denoted as B),54
CCO[C@@H]1C[C@H]2C(=O)NC3(CCC3)C(=O)N(C)[C@@H](C3CCCC3)C(=O)N(C)[C@H](C(=O)N(C)C)CC(=O)N(C)[C@@H](CC(C)C)C(=O)N[C@@H]([C@@H](C)CC)C(=O)N(C)CC(=O)N(C)[C@H]3CCCCCN(C3=O)[C@@H](Cc3ccc(F)cc3)C(=O)N(C)CC(=O)N[C@@H](CCc3ccc(C(F)(F)F)c(Cl)c3)C(=O)N2C1 [PP0972],B (a compound having 3 or more and less than 10 is denoted as B),0.15,B (a compound having 3 or more and less than 10 is denoted as B),15.8
CC[C@H](C)[C@@H]1NC(=O)[C@H](CC(C)C)N(C)C(=O)C[C@@H](C(=O)N2CCOCC2)N(C)C(=O)[C@H](C2CCCC2)N(C)C(=O)C2(CCC2)NC(=O)[C@@H]2C[C@@H](OCC3CC3)CN2C(=O)[C@H](CCc2cc(F)c(C(F)(F)F)c(F)c2)NC(=O)CN(C)C(=O)[C@H](Cc2ccc(C(F)(F)F)cc2)N2CCCC[C@@H](C2=O)N(C)C(=O)CN(C)C1=O [PP1000],B (a compound having 3 or more and less than 10 is denoted as B),0.039,B (a compound having 3 or more and less than 10 is denoted as B),7.5
CCCCO[C@H]1CCN2C(=O)[C@H](CCc3cc(F)c(C(F)(F)F)c(F)c3)NC(=O)CN(C)C(=O)[C@H](Cc3ccc(C(F)(F)F)cc3)N3CCCCC[C@@H](C3=O)N(C)C(=O)CN(C)C(=O)[C@H]([C@@H](C)CC)NC(=O)[C@H](CC(C)C)N(C)C(=O)C[C@@H](C(=O)N3CCOCC3)N(C)C(=O)[C@H](C3CCCC3)N(C)C(=O)C3(CCC3)NC(=O)[C@H]12 [PP1009],B (a compound having 3 or more and less than 10 is denoted as B),2,B (a compound having 3 or more and less than 10 is denoted as B),195
CC[C@H](C)[C@@H]1NC(=O)[C@H](CC(C)C)N(C)C(=O)C[C@@H](C(=O)N2CCOCC2)N(C)C(=O)[C@H](C2CCCC2)N(C)C(=O)C2(CCC2)NC(=O)[C@@H]2[C@@H](OCC3CCCC3)CCN2C(=O)[C@H](CCc2cc(F)c(C(F)(F)F)c(F)c2)NC(=O)CN(C)C(=O)[C@H](Cc2ccc(C(F)(F)F)cc2)N2CCCCC[C@@H](C2=O)N(C)C(=O)CN(C)C1=O [PP1011],B (a compound having 3 or more and less than 10 is denoted as B),3.7,A (a compound having 10 or more and less than 20 is denoted as A),314
CC[C@H](C)[C@@H]1NC(=O)[C@H](CC(C)C)N(C)C(=O)C[C@@H](C(=O)N2CCOCC2)N(C)C(=O)[C@H](C2CCCC2)N(C)C(=O)C2(CCC2)NC(=O)[C@@H]2C[C@@H](OCC3CC3)CN2C(=O)[C@H](CCc2cc(F)c(C(F)(F)F)c(F)c2)NC(=O)CN(C)C(=O)[C@H](Cc2ccc(C(F)(F)F)cc2)N2CCCC[C@@H](C2=O)N(C)C(=O)CN(C)C1=O [PP1014],C (A compound having a KD ratio of 0.1 or more and less than 3 is denoted as C),1.1,C (A compound having a KD ratio of 0.1 or more and less than 3 is denoted as C),114
CCO[C@@H]1C[C@H]2C(=O)NC3(CCC3)C(=O)N(C)[C@@H](C3CCCC3)C(=O)N(C)[C@H](C(=O)N(C)C)CC(=O)N(C)[C@@H](CC(C)C)C(=O)N[C@@H]([C@@H](C)CC)C(=O)N(C)CC(=O)N(C)[C@H]3C[C@@H](C)CCN(C3=O)[C@@H](Cc3ccc(C(F)(F)F)cc3)C(=O)N(C)CC(=O)N[C@@H](CCc3cc(F)c(C(F)(F)F)c(F)c3)C(=O)N2C1 [PP1018],B (a compound having 3 or more and less than 10 is denoted as B),0.017,C (A compound having a KD ratio of 0.1 or more and less than 3 is denoted as C),6.8
CCO[C@@H]1C[C@H]2C(=O)NC3(CCC3)C(=O)N(C)[C@@H](C3CCCC3)C(=O)N(C)[C@H](C(=O)N(C)C)CC(=O)N(C)[C@@H](CC(C)C)C(=O)N[C@@H]([C@@H](C)CC)C(=O)N(C)CC(=O)N(C)[C@H]3CC(C)=CCN(C3=O)[C@@H](Cc3ccc(C(F)(F)F)cc3)C(=O)N(C)CC(=O)N[C@@H](CCc3cc(F)c(C(F)(F)F)c(F)c3)C(=O)N2C1 [PP1032],C (A compound having a KD ratio of 0.1 or more and less than 3 is denoted as C),0.38,C (A compound having a KD ratio of 0.1 or more and less than 3 is denoted as C),43.9
CCO[C@@H]1C[C@H]2C(=O)NC3(CCC3)C(=O)N(C)[C@@H](C3CCCC3)C(=O)N(C)[C@H](C(=O)N(C)C)CC(=O)N(CC)[C@@H](CC(C)C)C(=O)N[C@@H]([C@@H](C)CC)C(=O)N(C)CC(=O)N(C)[C@H]3CC(C)=CCN(C3=O)[C@@H](Cc3ccc(C(F)(F)F)cc3)C(=O)N(C)CC(=O)N[C@@H](CCc3cc(F)c(C(F)(F)F)c(F)c3)C(=O)N2C1 [PP1037],C (A compound having a KD ratio of 0.1 or more and less than 3 is denoted as C),0.76,C (A compound having a KD ratio of 0.1 or more and less than 3 is denoted as C),296
CCO[C@@H]1C[C@H]2C(=O)NC3(CCC3)C(=O)N(C)[C@@H](C3CCCC3)C(=O)N(C)[C@H](C(=O)N(C)C)CC(=O)N(C)[C@@H](CC)C(=O)N[C@@H]([C@@H](C)CC)C(=O)N(C)CC(=O)N(C)[C@H]3CC(C)=C(C)CN(C3=O)[C@@H](Cc3ccc(C(F)(F)F)cc3)C(=O)N(C)CC(=O)N[C@@H](CCc3cc(F)c(C(F)(F)F)c(F)c3)C(=O)N2C1 [PP1048],C (A compound having a KD ratio of 0.1 or more and less than 3 is denoted as C),0.49,C (A compound having a KD ratio of 0.1 or more and less than 3 is denoted as C),134
CCO[C@@H]1C[C@H]2C(=O)NC3(CCC3)C(=O)N(C)[C@@H](C3CCCC3)C(=O)N(C)[C@H](C(=O)N(C)C)CC(=O)N(CC)[C@@H](CC(C)C)C(=O)N[C@@H]([C@@H](C)CC)C(=O)N(C)CC(=O)N(C)[C@H]3CC(C)=C(C)CN(C3=O)[C@@H](Cc3ccc(C(F)(F)F)cc3)C(=O)N(C)CC(=O)N[C@@H](CCc3cc(F)c(C(F)(F)F)c(F)c3)C(=O)N2C1 [PP1051],C (A compound having a KD ratio of 0.1 or more and less than 3 is denoted as C),1.8,C (A compound having a KD ratio of 0.1 or more and less than 3 is denoted as C),286
